According to paper PMC6337650 (Molecules, 2018):

What was measured:
[1] = tested on: L02 cells; experiment: MTT assay on normal liver cells L02; assay type: cell-based; details: Homo sapiens, normal liver cells, 48 h, MTT, Table 2, read-out: IC50 Values (μM) L02
Description: (§1) The antiproliferative activity of the target compounds against a normal L02 cell line and the three different human cancer cell lines viz. colorectal (HCT-116), liver (BEL-7402) and liver (HepG2) were evaluated using a standard MTT-based colorimetric assay. All cell lines were obtained from the Key Laboratory of Natural Resources and Functional Molecules of the Changbai Mountain (Yanbian University, Jilin, China) and maintained in Dulbecco’s modified Eagle’s medium (DMEM) and RPMI Media 1640 (RPMI1640), supplemented with 10% fetal bovine serum (FBS) at 37 °C in a humidified atmosphere containing 5% CO2.
Cells were plated in 96-well plates at appropriate densities to ensure exponential growth throughout the experimental period (9 × 10^3 cells per well) and then allowed to adhere for 24 h. Cells were then treated for 48 h with four serial concentrations (1, 10, 50 and 100 µM) of each compound. […] After 48 h of incubation, 10 µL of MTT solution was added to each well to a final concentration of 2 mg/mL. Plates were then incubated for a further 4 h. After incubation, the MTT solution was removed and 150 µL of DMSO was added to each well for coloration. The plates were shaken vigorously for 10 min at room temperature to ensure complete solubilization. The optical density (OD) was read on a microplate reader (ELx800, BioTek, Highland Park, Winooski, VT, USA) at a wavelength of 492 nm and the data were subsequently analyzed. The percentage of cell growth inhibition was calculated from the following equation: Inhibitory rate (%) = [(1 − (ODtreated-ODblank)/(ODcontrol-ODblank)] × 100.(1)

[2] = tested on: HCT-116 cells; experiment: MTT antiproliferative assay, HCT-116; assay type: cell-based, human; details: Homo sapiens, HCT-116, 48 h, MTT, mean ± SD, n=3; for inhibition at 100 µM: read-out: % Growth Inhibition at 100 μM HCT-116
Description: as §1
(§2) Cells were plated in 96-well plates at appropriate densities to ensure exponential growth throughout the experimental period (9 × 10^3 cells per well) and then allowed to adhere for 24 h. Cells were then treated for 48 h with four serial concentrations (1, 10, 50 and 100 µM) of each compound. 5-fluorouracil (5-FU) was used as a positive control. After 48 h of incubation, 10 µL of MTT solution was added to each well to a final concentration of 2 mg/mL. Plates were then incubated for a further 4 h. After incubation, the MTT solution was removed and 150 µL of DMSO was added to each well for coloration. The plates were shaken vigorously for 10 min at room temperature to ensure complete solubilization. The optical density (OD) was read on a microplate reader (ELx800, BioTek, Highland Park, Winooski, VT, USA) at a wavelength of 492 nm and the data were subsequently analyzed. The percentage of cell growth inhibition was calculated from the following equation: Inhibitory rate (%) = [(1 − (ODtreated-ODblank)/(ODcontrol-ODblank)] × 100.(1)

[3] = tested on: HepG2 cells; experiment: MTT antiproliferative assay, HepG2; assay type: cell-based, human; details: Homo sapiens, HepG2, 48 h, MTT, mean ± SD, n=3; for inhibition at 100 µM: read-out: % Growth Inhibition at 100 μM HepG2
Description: as §1, §2

[4] = tested on: BEL-7402 cells; experiment: MTT antiproliferative assay, BEL-7402; assay type: cell-based, human; details: Homo sapiens, Bel-7402, 48 h, MTT, mean ± SD, n=3; for inhibition at 100 µM: read-out: % Growth Inhibition at 100 μM BEL-7402
Description: as §1, §2

[5] = tested on: HeLa cells; details: read-out: IC50 against HeLa cells; cited from earlier work
[6] = tested on: HT29 cells; details: cell line printed as HT24 in b5; read-out: IC50 against HT24 cell line; cited from earlier work
[7] = tested on: T24 cells; details: Figure 2; read-out: IC50 against T24 cells; cited from earlier work
[8] = tested on: HL-60 cells; design: method as in PMID 26653151, PMID 25405286; details: Figure 2; read-out: IC50 against HL-60 cells; cited from earlier work

melting point [°C] | IC50 [2] [µM] | IC50 [3] [µM] | IC50 [4] [µM] | Compound | IC50 [1] [µM] | inhibition at 100 µM [2] [%] | inhibition at 100 µM [3] [%] | inhibition at 100 µM [4] [%] | IC50 [5] [µM] | IC50 [6] [µM] | IC50 [7] [µM] | IC50 [8] [µM]
154 to 156 | 56.6 ± 1.56 | > 100 | > 100 | C[C@@]12CC[C@@H]3[C@@](CC[C@H]4[C@@]3(C)CCC[C@@]4(C)C(=O)OCC(=O)Nc3ccccc3)(CC1=O)C2 [Compound 4a, 2-oxo-2-(phenylamino)ethyl(4R,4aS,6aR,9S,11aR,11bS)-4,9,11b-trimethyl-8-oxotetradecahydro-6a,9-methanocyclohepta[a]naphthalene-4-carboxylate] | > 100 | 60.4 ± 3.11 | 31.2 ± 1.19 | 50.8 ± 2.31 | – | – | – | –
144 to 145 | 17.2 ± 0.43 | > 100 | > 100 | C[C@@]12CC[C@@H]3[C@@](CC[C@H]4[C@@]3(C)CCC[C@@]4(C)C(=O)OCC(=O)Nc3cccc(F)c3)(CC1=O)C2 [Compound 4f, 2-((3-fluorophenyl)amino)-2-oxoethyl(4R,4aS,6aR,9S,11aR,11bS)-4,9,11b-trimethyl-8-oxotetradecahydro-6a,9-methanocyclohepta[a]naphthalene-4-carboxylate] | > 100 | 68.7 ± 2.67 | 49.12 ± 0.44 | 54.6 ± 3.11 | – | – | – | –
189 to 190 | > 100 | 14.1 ± 0.27 | 12.14 ± 0.12 | C[C@@]12CC[C@@H]3[C@@](CC[C@H]4[C@@]3(C)CCC[C@@]4(C)C(=O)OCC(=O)Nc3ccc([N+](=O)[O-])cc3)(CC1=O)C2 [Compound 4h, 2-((4-nitrophenyl)amino)-2-oxoethyl(4R,4aS,6aR,9S,11aR,11bS)-4,9,11b-trimethyl-8-oxotetradecahydro-6a,9-methanocyclohepta[a]naphthalene-4-carboxylate] | > 100 | 55.4 ± 2.55 | 76.5 ± 1 | 71.4 ± 2.36 | – | – | – | –
83 to 84 | 14.6 ± 0.51 | 9.87 ± 0.13 | 27.1 ± 0.87 | C[C@@]12CC[C@@H]3[C@@](CC[C@H]4[C@@]3(C)CCC[C@@]4(C)C(=O)OCC(=O)NCc3cn(-c4ccccc4)nn3)(CC1=O)C2 [Compound 5a, 2-oxo-2-(((1-phenyl-1H-1,2,3-triazol-4-yl)methyl)amino)ethyl(4R,4aS,6aR,9S,11aR,11bS)-4,9,11b-trimethyl-8-oxotetradecahydro-6a,9-methanocyclohepta[a]naphthalene-4-carboxylate] | > 100 | 81.9 ± 2.55 | 87 ± 1.06 | 90 ± 1.92 | – | – | – | –
80 to 82 | 7.44 ± 0.37 | 11.7 ± 0.23 | 22.5 ± 0.58 | C[C@@]12CC[C@@H]3[C@@](CC[C@H]4[C@@]3(C)CCC[C@@]4(C)C(=O)OCC(=O)NCc3cn(-c4ccc(Cl)cc4)nn3)(CC1=O)C2 [Compound 5b, 2-(((1-(4-chlorophenyl)-1H-1,2,3-triazol-4-yl)methyl)amino)-2-oxoethyl(4R,4aS,6aR,9S,11aR,11bS)-4,9,11b-trimethyl-8-oxotetradecahydro-6a,9-methanocyclohepta[a]naphthalene-4-carboxylate] | > 100 | 85.6 ± 1.34 | 82.1 ± 1.82 | 90.5 ± 1.04 | – | – | – | –
71 to 72 | 14.4 ± 1.31 | 12.3 ± 0.77 | > 100 | COc1ccc(-n2cc(CNC(=O)COC(=O)[C@]3(C)CCC[C@@]4(C)[C@@H]5CC[C@@]6(C)C[C@]5(CC[C@@H]43)CC6=O)nn2)cc1 [Compound 5c, 2-(((1-(4-methoxyphenyl)-1H-1,2,3-triazol-4-yl)methyl)amino)-2-oxoethyl(4R,4aS,6aR,9S,11aR,11bS)-4,9,11b-trimethyl-8-oxotetradecahydro-6a,9-methanocyclohepta[a]naphthalene-4-carboxylate] | > 100 | 84.6 ± 1.55 | 82.8 ± 2.02 | 75.6 ± 1.76 | – | – | – | –
96 to 97 | 14.3 ± 0.15 | 12.82 ± 0.09 | > 100 | C[C@@]12CC[C@@H]3[C@@](CC[C@H]4[C@@]3(C)CCC[C@@]4(C)C(=O)OCC(=O)NCc3cn(-c4ccc(Cl)c(Cl)c4)nn3)(CC1=O)C2 [Compound 5e, 2-(((1-(3,4-dichlorophenyl)-1H-1,2,3-triazol-4-yl)methyl)amino)-2-oxoethyl(4R,4aS,6aR,9S,11aR,11bS)-4,9,11b-trimethyl-8-oxotetradecahydro-6a,9-methanocyclohepta[a]naphthalene-4-carboxylate] | > 100 | 71.14 ± 0.65 | 66.1 ± 0.97 | 68 ± 1.17 | – | – | – | –

Continued, molecule first:

Compound | melting point [°C] | IC50 [2] [µM] | IC50 [3] [µM] | IC50 [4] [µM] | IC50 [1] [µM] | inhibition at 100 µM [2] [%] | inhibition at 100 µM [3] [%] | inhibition at 100 µM [4] [%] | IC50 [5] [µM] | IC50 [6] [µM] | IC50 [7] [µM] | IC50 [8] [µM]
COC(=O)C(Cc1ccccc1)NC(=O)C1(C)CCCC2(C)C3CCC4(C)CC3(CCC12)CC4=O [Compound 3b, Methyl((4R,4aS,6aR,9S,11aR,11bS)-4,9,11b-trimethyl-8-oxotetradecahydro-6a,9-methanocyclohepta[a]naphthalene-4-carbonyl)-D-phenylalaninate] | 147 to 148 | 22.8 ± 0.81 | 24.4 ± 1.75 | 36.5 ± 0.67 | > 100 | 70.8 ± 0.98 | 81.2 ± 2.66 | 61.8 ± 0.96 | – | – | – | –
CCOP(=O)(OCC)C(NC(=O)COC(=O)[C@]1(C)CCC[C@@]2(C)[C@@H]3CC[C@@]4(C)C[C@]3(CC[C@@H]21)CC4=O)c1ccc(OC)cc1 (stereo partly drawn) [Compound 6c, 2-(((diethoxyphosphoryl)(4-methoxyphenyl)methyl)amino)-2-oxoethyl(4R,4aS,6aR,9S,11aR,11bS)-4,9,11b-trimethyl-8-oxotetradecahydro-6a,9-methanocyclohepta[a]naphthalene-4-carboxylate] | 134 to 135 | 15.15 ± 0.11 | > 100 | 92.6 ± 1.96 | > 100 | 74.1 ± 2.45 | 41.4 ± 1.86 | 50.9 ± 2.68 | – | – | – | –
CCOP(=O)(OCC)C(NC(=O)COC(=O)[C@]1(C)CCC[C@@]2(C)[C@@H]3CC[C@@]4(C)C[C@]3(CC[C@@H]21)CC4=O)c1ccc(C)cc1 (stereo partly drawn) [Compound 6d, 2-(((diethoxyphosphoryl)(p-tolyl)methyl)amino)-2-oxoethyl(4R,4aS,6aR,9S,11aR,11bS)-4,9,11b-trimethyl-8-oxotetradecahydro-6a,9-methanocyclohepta[a]naphthalene-4-carboxylate] | 119 to 120 | 18.7 ± 0.17 | 13.2 ± 0.86 | 60.9 ± 1.37 | > 100 | 76.6 ± 2.33 | 80.64 ± 0.76 | 51.5 ± 0.68 | – | – | – | –
CC(=O)O[C@H]1CC[C@@]2(C)C(CC[C@]3(C)C2CC=C2C4[C@@H](C)[C@H](C)CC[C@]4(C(=O)Nc4ccccc4)CC[C@]23C)C1(C)C (stereo partly drawn) [Compound A] | – | – | – | – | – | – | – | – | 1.63 | – | – | –
CC(=O)O[C@H]1CC[C@@]2(C)C(CC[C@]3(C)C2CC=C2C4CC(C)(C)CC[C@]4(C(=O)NCCN4CCCC4)CC[C@]23C)C1(C)C (stereo partly drawn) [Compound B] | – | – | – | – | – | – | – | – | – | 1.3 | – | –
CCOP(=O)(OCC)C(NC(=O)[C@]12CC[C@@H](C)[C@H](C)[C@H]1C1=CC[C@@H]3[C@@]4(C)C[C@@H](OC(C)=O)[C@H](OC(C)=O)[C@@](C)(COC(C)=O)[C@@H]4CC[C@@]3(C)[C@]1(C)CC2)c1ccccc1Cl (stereo partly drawn) [Compound D] | – | – | – | – | – | – | – | – | – | – | 6.59 | –
COC(=O)[C@]1(C)CCC[C@@]2(C)[C@@H]3CC[C@@]4(C)C[C@@]3(C=C4c3cn(CCCc4ccccc4)nn3)CC[C@@H]21 [Compound E] | – | – | – | – | – | – | – | – | – | – | – | 25.6
